These results are taken from patent US8563564B2, “Composition for skin external application containing gallocatechin gallate for moisturizing effect on the skin” (priority 2005, dated 2013).

For assay [1], the system named is PPAR-α. As to the kind of experiment: PPAR-α activation capability, One-Factor-At-A-Time reporter gene (Dual-Luciferase) assay in CV-1 cells. The assay is classed as cell-based. The note with it: ratio based on the negative control, mean of three tests. The source says:
(§1) One of the known methods for determining PPAR activation by observing PPAR activation/inactivation is reporter gene assay (Kliewer et. al., Nature, 1992, 358: 771-774). The reporter gene assay includes cloning a base sequence containing a promoter of interest and reporter genes, and injecting the base sequence into eukaryotic cells to activate transcription and to control the expression of a protein. Herein, protein expression increases as the promoter is activated. The reporter gene used for the first time is CAT (chloramphenicol acetyltransferase) gene. Recently, luciferase gene has been used widely. In the present invention, a Dual-Luciferase Reporter Assay System Kit available from Promega Co. was used. The following test was carried out to determine PPAR-α activation capability. CV-1 cells (ATCC CCL 70), i.e. monkey kidney epithelial cell line, were subcultured in a DMEM medium containing 10% bovine fetal serum treated with charcoal/dextrin. A phenol red-free medium was used to avoid the effect of estrogen upon phenol red. As plasmids, used were plasmids having PPRE (PPARs responsive element) as a promoter, followed by firefly luciferase genes as a reporter, the PPRE being activated by PPAR- (gene-containing PPAR- and ligand-bound PPAR-) bound next to the universal promoter expressed under general culture conditions, and a reference plasmid to which renilla luciferase genes were bound. CV-1 cells were plated on a 24-well microtiter plate at a concentration of 5×10^4 cells per well and cultured for 24 hours. Then, the above three types of plasmid genes were subjected to transient transfection by using a TransFast Kit available from Promega Co. After the cultured product was washed with PBS (phosphate buffered saline) once, the product was treated with a suitable concentration of sample materials, cultured again for 24 hours, and washed with PBS twice. Next, the cells were lysed with PLB (passive lysis buffer, Promega) once, and determined for luciferase activity by using a Dual-Luciferase Reporter Assay System Kit (Promega) in the samples and the controls. In this test, as a positive control, Wy14643 known as the strongest PPAR-α ligand was used. As negative controls, DMSO used to dissolve the samples and non-treated group were used. Each reported value was calculated as a ratio based on the negative control. The results are shown in the following Table 1, wherein each value is the mean value obtained after carrying out the test three times.

Assay [2] concerns PPAR-α. As to the kind of experiment: PPAR-α activation capability of GCG/theobromine/quercetin combinations, response surface methodology (central composite design). The assay is classed as cell-based.
From the text: as §1, with “CV-1” for “One of the known methods for determining PPAR activation by observing PPAR activation/inactivation is reporter gene assay (Kliewer et. al., Nature, 1992, 358: 771-774). The reporter gene assay includes cloning a base sequence containing a promoter of interest and reporter genes, and injecting the base sequence into eukaryotic cells to activate transcription and to control the expression of a protein. Herein, protein expression increases as the promoter is activated. The reporter gene used for the first time is CAT (chloramphenicol acetyltransferase) gene. Recently, luciferase gene has been used widely. In the present invention, a Dual-Luciferase Reporter Assay System Kit available from Promega Co. was used. The following test was carried out to determine PPAR-α activation capability. CV-1”, “times. […] When using RSM, it is possible to understand the level of an independent parameter where a response value is optimized, to estimate the effect of an independent parameter upon response parameters via estimation of a functional relationship between each independent parameter and dependent parameter, and to determine optimized experimental conditions. […]” for “times.”

As to `Oc1cc(O)c2c(c1)O[C@H](c1ccc(O)c(O)c1)[C@@H](O)C2` [(+) CA], the “PPAR-α Activation” value is reported as 1.5 in the assay with PPAR-α [1] (10 uM) and 1.4 in the assay with PPAR-α [1] (100 uM).

As for `Oc1cc(O)c2c(c1)O[C@@H](c1ccc(O)c(O)c1)[C@@H](O)C2` [(+) EC], the “PPAR-α Activation” value in the assay on PPAR-α [1] (10 uM) was 1.3; with PPAR-α [1] (100 uM), 1.2.

For the molecule `O=C(O[C@@H]1Cc2c(O)cc(O)cc2O[C@H]1c1ccc(O)c(O)c1)c1cc(O)c(O)c(O)c1` [(−) CG], the “PPAR-α Activation” value in the assay on PPAR-α [1] (10 uM) is given as 1.2; in the assay on PPAR-α [1] (100 uM), 1.6.

As to `O=C(O[C@@H]1Cc2c(O)cc(O)cc2O[C@@H]1c1ccc(O)c(O)c1)c1cc(O)c(O)c(O)c1` [(−) ECG], the results for the “PPAR-α Activation” value in the assay with PPAR-α [1] (10 uM) and in the assay on PPAR-α [1] (100 uM) were 1.1 and 1.6, respectively.

In the case of `Oc1cc(O)c2c(c1)O[C@H](c1ccc(O)c(O)c1)[C@H](O)C2` [(−) EC], the “PPAR-α Activation” value in the assay with PPAR-α [1] (10 uM) and in the assay with PPAR-α [1] (100 uM) was 1.2 in each case.

As for `Oc1cc(O)c2c(c1)O[C@H](c1cc(O)c(O)c(O)c1)[C@H](O)C2` [(−) EGC], the “PPAR-α Activation” value with PPAR-α [1] (10 uM) is given as 1.3; in the assay with PPAR-α [1] (100 uM), 1.0.

For `O=C(O[C@@H]1Cc2c(O)cc(O)cc2O[C@H]1c1cc(O)c(O)c(O)c1)c1cc(O)c(O)c(O)c1` [(−) GCG, gallocatechin gallate], the “PPAR-α Activation” value with PPAR-α [1] (10 uM) came out at 1.1; with PPAR-α [1] (100 uM), 2.3. The “fold (PPAR-α activation)” value in the assay on PPAR-α [2] (GCG 100, theobromine 0, quercetin 0) was 1.191 fold.

Consider `Oc1cc(O)c2c(c1)O[C@@H](c1cc(O)c(O)c(O)c1)[C@H](O)C2` [(−) GC], for which the “PPAR-α Activation” value in the assay on PPAR-α [1] (10 uM) came to 1.1; with PPAR-α [1] (100 uM), 1.0.

`Cn1c(=O)c2c(ncn2C)n(C)c1=O` [Caffeine]: the results for the “PPAR-α Activation” value in the assay with PPAR-α [1] (10 uM) and in the assay on PPAR-α [1] (100 uM) were 1.3 and 1.6, respectively.

Turning to `O=C(O)c1cc(O)c(O)c(O)c1` [Gallic acid], the “PPAR-α Activation” value came out at 1.3 in the assay with PPAR-α [1] (10 uM) and 1.7 in the assay on PPAR-α [1] (100 uM).

Take `O=c1c(O)c(-c2ccc(O)cc2)oc2cc(O)cc(O)c12` [Kaempferol]: the “PPAR-α Activation” value amounted to 1.7 with PPAR-α [1] (10 uM) and 1.4 in the assay with PPAR-α [1] (100 uM).

Take `O=c1c(O)c(-c2cc(O)c(O)c(O)c2)oc2cc(O)cc(O)c12` [Myricetin]: the “PPAR-α Activation” value in the assay with PPAR-α [1] (10 uM) turned out to be 1.7; in the assay with PPAR-α [1] (100 uM), 1.6.

Consider `Cc1cccc(Nc2cc(Cl)nc(SCC(=O)O)n2)c1C` [Positive Control, Wy14643], for which the “PPAR-α Activation” value worked out at 1.5 in the assay with PPAR-α [1] (0.1 uM), 2.6 in the assay with PPAR-α [1] (1 uM) and 3.8 with PPAR-α [1] (10 uM).

For `O=c1c(O)c(-c2ccc(O)c(O)c2)oc2cc(O)cc(O)c12` [Quercetin], the figures for the “PPAR-α Activation” value in the assay with PPAR-α [1] (10 uM) and with PPAR-α [1] (100 uM) were 1.7 and 2.3, respectively. Also, the “fold (PPAR-α activation)” value in the assay with PPAR-α [2] (GCG 0, theobromine 0, quercetin 100) turned out to be 1.3 fold.

Consider `O=C(O)[C@]1(O)C[C@@H](O)[C@@H](O)[C@H](O)C1` [Quinic acid], for which the “PPAR-α Activation” value stood at 1.3 in the assay on PPAR-α [1] (10 uM) and 1.7 in the assay on PPAR-α [1] (100 uM).

Consider `C[C@@H]1O[C@@H](OC[C@H]2O[C@@H](Oc3c(-c4ccc(O)c(O)c4)oc4cc(O)cc(O)c4c3=O)[C@H](O)[C@@H](O)[C@@H]2O)[C@H](O)[C@H](O)[C@H]1O` [Rutin hydrate], for which the entries for the “PPAR-α Activation” value with PPAR-α [1] (10 uM) and with PPAR-α [1] (100 uM) were 1.6 and 1.3, respectively.

Take `CCNC(=O)CC[C@H](N)C(=O)O` [Theanine]: the “PPAR-α Activation” value in the assay with PPAR-α [1] (10 uM) worked out at 1.8; in the assay with PPAR-α [1] (100 uM), 1.9.

Consider `Cn1cnc2c1c(=O)[nH]c(=O)n2C` [Theobromine], for which the “PPAR-α Activation” value in the assay on PPAR-α [1] (10 uM) is reported as 2.2; with PPAR-α [1] (100 uM), 4.5. The “fold (PPAR-α activation)” value in the assay on PPAR-α [2] (GCG 0, theobromine 100, quercetin 0) is on record as 1.905 fold.

As for `Cn1c(=O)c2[nH]cnc2n(C)c1=O` [Theophylline], the “PPAR-α Activation” value is 1.4 with PPAR-α [1] (10 uM) and 1.7 in the assay with PPAR-α [1] (100 uM).

For the molecule Epigallocatechin gallate [(−) EGCG], the “PPAR-α Activation” value in the assay with PPAR-α [1] (10 uM) came to 1.0; in the assay on PPAR-α [1] (100 uM), 1.5.
